Measured values from patent US9255100B2 (BAYER INTELLECTUAL PROPERTY GMBH, priority 2010, dated 2016).
pIC50: −log10 of the molar value.

These compounds were tested against T1, N-terminally GST-tagged human full length recombinant Mps-1 kinase (Homo sapiens, UniProt P33981) (assay: Mps-1 kinase assay (TR-FRET)). Settings: 10 μM ATP, 1 μM peptide substrate, 60 min at 22° C., read-out: Mps1 IC50.
T1 construct: N-terminally GST-tagged human full length recombinant Mps-1 kinase; purchased Invitrogen, Karslruhe, Germany PV4071
T1 sequence (P33981 1-857): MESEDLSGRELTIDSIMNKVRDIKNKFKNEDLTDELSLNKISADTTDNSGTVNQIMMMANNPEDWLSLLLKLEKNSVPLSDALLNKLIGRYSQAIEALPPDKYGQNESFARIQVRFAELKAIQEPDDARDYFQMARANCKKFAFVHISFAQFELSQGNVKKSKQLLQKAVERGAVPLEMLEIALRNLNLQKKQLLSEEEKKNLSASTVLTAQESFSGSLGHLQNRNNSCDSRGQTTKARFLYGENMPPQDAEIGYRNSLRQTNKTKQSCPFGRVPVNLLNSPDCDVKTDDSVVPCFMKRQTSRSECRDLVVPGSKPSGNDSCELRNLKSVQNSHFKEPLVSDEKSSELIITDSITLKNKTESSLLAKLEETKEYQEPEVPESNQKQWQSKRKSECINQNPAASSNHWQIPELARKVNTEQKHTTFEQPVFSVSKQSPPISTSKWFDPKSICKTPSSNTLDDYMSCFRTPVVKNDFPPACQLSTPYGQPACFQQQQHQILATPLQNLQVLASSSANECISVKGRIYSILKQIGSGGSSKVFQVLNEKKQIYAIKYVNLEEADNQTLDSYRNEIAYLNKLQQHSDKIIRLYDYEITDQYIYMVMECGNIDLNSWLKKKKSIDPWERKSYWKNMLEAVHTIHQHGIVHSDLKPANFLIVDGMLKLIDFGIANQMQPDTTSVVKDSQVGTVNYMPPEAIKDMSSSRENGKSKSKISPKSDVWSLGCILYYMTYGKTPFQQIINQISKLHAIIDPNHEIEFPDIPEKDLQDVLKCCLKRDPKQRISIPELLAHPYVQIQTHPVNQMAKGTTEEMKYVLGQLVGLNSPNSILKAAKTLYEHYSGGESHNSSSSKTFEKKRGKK
Type: biochemical
Outline: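 Kinase activity of N-terminally GST-tagged full-length recombinant Mps-1, used at about 1 nM final and set within the linear range, was measured on a biotinylated peptide substrate. Phosphopeptide was detected by TR-FRET from Eu-anti-phospho(Ser/Thr) antibody to streptavidin-XLent after 1 h at 22° C.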

Row | SMILES | pIC50
1 | Cc1cc(-c2cnc3c(NCC4CC[S+]([O-])CC4)cc(Sc4ccccc4)nn23)ccc1C(=O)NC1CC1 (stereo not drawn) [Example 303B, N-cyclopropyl-2-methyl-4-[8-({[(trans)-1-oxidotetrahydro-2H-thiopyran-4-yl]methyl}amino)-6-(phenylsulfanyl)imidazo[1,2-b]pyridazin-3-yl]benzamide] | 9.70

Same assay, conditions: Mps1 IC50 [nM], 10 μM ATP, 1 μM peptide substrate, 60 min at 22° C.

Row | IC50 [nM] | SMILES
2 | 0.4 | Cc1cc(-c2cnc3c(NCC4CCS(=O)(=O)CC4)cc(Oc4ccc(F)cc4)nn23)ccc1C(=O)NC1CC1 [Example 295A, N-cyclopropyl-4-[8-{[(1,1-dioxidotetrahydro-2H-thiopyran-4-yl)methyl]amino}-6-(4-fluorophenoxy)imidazo[1,2-b]pyridazin-3-yl]-2-methylbenzamide]
3 | 0.5 | Cc1cc(-c2cnc3c(NCC4CCS(=O)(=O)CC4)cc(Oc4cccnc4)nn23)ccc1C(=O)NC1CC1 [Example 296A, N-cyclopropyl-4-[8-{[(1,1-dioxidotetrahydro-2H-thiopyran-4-yl)methyl]amino}-6-(pyridin-3-yloxy)imidazo[1,2-b]pyridazin-3-yl]-2-methylbenzamide]
4 | 0.5 | Cc1cc(-c2cnc3c(NC[C@H]4CC[S@@+]([O-])CC4)cc(Oc4cccnc4)nn23)ccc1C(=O)NC1CC1 [Example 296B, N-cyclopropyl-2-methyl-4-[8-({[(cis)-1-oxidotetrahydro-2H-thiopyran-4-yl]methyl}amino)-6-(pyridin-3-yloxy)imidazo[1,2-b]pyridazin-3-yl]benzamide]
5 | 0.2 | Cc1cc(-c2cnc3c(NC[C@H]4CC[S@+]([O-])CC4)cc(Oc4cccnc4)nn23)ccc1C(=O)NC1CC1 [Example 296C, N-cyclopropyl-2-methyl-4-[8-({[(trans)-1-oxidotetrahydro-2H-thiopyran-4-yl]methyl}amino)-6-(pyridin-3-yloxy)imidazo[1,2-b]pyridazin-3-yl]benzamide]
6 | < 0.1 | Cc1cc(-c2cnc3c(NCC4CCS(=O)(=O)CC4)cc(Oc4cccc(F)c4)nn23)ccc1C(=O)NC1CC1 [Example 298A, N-cyclopropyl-4-[8-{[(1,1-dioxidotetrahydro-2H-thiopyran-4-yl)methyl]amino}-6-(3-fluorophenoxy)imidazo[1,2-b]pyridazin-3-yl]-2-methylbenzamide]
7 | < 0.1 | Cc1cc(-c2cnc3c(NC[C@H]4CC[S@@+]([O-])CC4)cc(Sc4cccc(F)c4)nn23)ccc1C(=O)NC1CC1 [Example 304A, N-cyclopropyl-4-(6-[(3-fluorophenyl)sulfanyl]-8-({[(cis)-1-oxidotetrahydro-2H-thiopyran-4-yl]methyl}amino)imidazo[1,2-b]pyridazin-3-yl)-2-methylbenzamide]
8 | 0.1 | Cc1cc(-c2cnc3c(NC[C@H]4CC[S@+]([O-])CC4)cc(Sc4cccc(F)c4)nn23)ccc1C(=O)NC1CC1 [Example 304B, N-cyclopropyl-4-(6-[(3-fluorophenyl)sulfanyl]-8-({[(trans)-1-oxidotetrahydro-2H-thiopyran-4-yl]methyl}amino)imidazo[1,2-b]pyridazin-3-yl)-2-methylbenzamide]

More lines, now with the values behind:

Row | SMILES | IC50 [nM]
9 | Cc1cc(-c2cnc3c(NCC4CCSCC4)cc(Sc4cccc(O)c4)nn23)ccc1C(=O)NC1CC1 [Example 287, N-cyclopropyl-4-{6-[(3-hydroxyphenyl)sulfanyl]-8-[(tetrahydro-2H-thiopyran-4-ylmethyl)amino]imidazo[1,2-b]pyridazin-3-yl}-2-methylbenzamide] | 0.3
10 | Cc1cc(-c2cnc3c(NCC4CCSCC4)cc(Sc4ccccc4O)nn23)ccc1C(=O)NC1CC1 [Example 289, N-cyclopropyl-4-{6-[(2-hydroxyphenyl)sulfanyl]-8-[(tetrahydro-2H-thiopyran-4-ylmethyl)amino]imidazo[1,2-b]pyridazin-3-yl}-2-methylbenzamide] | 0.2
11 | Cc1cc(-c2cnc3c(NCC4CCSCC4)cc(Oc4ccc(F)cc4)nn23)ccc1C(=O)NC1CC1 [Example 290, N-cyclopropyl-4-{6-(4-fluorophenoxy)-8-[(tetrahydro-2H-thiopyran-4-ylmethyl)amino]imidazo[1,2-b]pyridazin-3-yl}-2-methylbenzamide] | 0.3
12 | Cc1cc(-c2cnc3c(NCC4CCSCC4)cc(Oc4ccc(Cl)c(F)c4)nn23)ccc1C(=O)NC1CC1 [Example 291, 4-{6-(4-chloro-3-fluorophenoxy)-8-[(tetrahydro-2H-thiopyran-4-ylmethyl)amino]imidazo[1,2-b]pyridazin-3-yl}-N-cyclopropyl-2-methylbenzamide] | 0.6
13 | Cc1cc(-c2cnc3c(NCC4CCSCC4)cc(Oc4ccc(Cl)cc4)nn23)ccc1C(=O)NC1CC1 [Example 292, 4-{6-(4-chlorophenoxy)-8-[(tetrahydro-2H-thiopyran-4-ylmethyl)amino]imidazo[1,2-b]pyridazin-3-yl}-N-cyclopropyl-2-methylbenzamide] | 0.5
14 | Cc1cc(-c2cnc3c(NCC4CCSCC4)cc(Oc4cccc(F)c4F)nn23)ccc1C(=O)NC1CC1 [Example 293, N-cyclopropyl-4-{6-(2,3-difluorophenoxy)-8-[(tetrahydro-2H-thiopyran-4-ylmethyl)amino]imidazo[1,2-b]pyridazin-3-yl}-2-methylbenzamide] | 0.4
15 | Cc1cc(-c2cnc3c(NCC4CCS(=O)(=O)CC4)cc(Oc4ccc(Cl)cc4)nn23)ccc1C(=O)NC1CC1 [Example 294A, 4-[6-(4-chlorophenoxy)-8-{[(1,1-dioxidotetrahydro-2H-thiopyran-4-yl)methyl]amino}imidazo[1,2-b]pyridazin-3-yl]-N-cyclopropyl-2-methylbenzamide] | 0.3
16 | Cc1cc(-c2cnc3c(NCC4CCS(=O)(=O)CC4)cc(Oc4ccccc4F)nn23)ccc1C(=O)NC1CC1 [Example 297, N-cyclopropyl-4-[8-{[(1,1-dioxidotetrahydro-2H-thiopyran-4-yl)methyl]amino}-6-(2-fluorophenoxy)imidazo[1,2-b]pyridazin-3-yl]-2-methylbenzamide] | 0.1
17 | Cc1cc(-c2cnc3c(NCC(C)(C)O)cc(-c4ccc(F)cc4CO)nn23)ccc1C(=O)NC1CC1 [Example 299, N-cyclopropyl-4-{6-[4-fluoro-2-(hydroxymethyl)phenyl]-8-[(2-hydroxy-2-methylpropyl)amino]imidazo[1,2-b]pyridazin-3-yl}-2-methylbenzamide] | 6.9
18 | Cc1cc(-c2cnc3c(NCC(C)(C)O)cc(Sc4ccc(F)c(F)c4)nn23)ccc1C(=O)NC1CC1 [Example 300, N-cyclopropyl-4-{6-[(3,4-difluorophenyl)sulfanyl]-8-[(2-hydroxy-2-methylpropyl)amino]imidazo[1,2-b]pyridazin-3-yl}-2-methylbenzamide] | 0.8
19 | Cc1cc(-c2cnc3c(NCC4CCS(=O)(=O)CC4)cc(Sc4cccc(F)c4)nn23)ccc1C(=O)NC1CC1 [Example 301, N-cyclopropyl-4-(8-{[(1,1-dioxidotetrahydro-2H-thiopyran-4-yl)methyl]amino}-6-[(3-fluorophenyl)sulfanyl]imidazo[1,2-b]pyridazin-3-yl)-2-methylbenzamide] | 0.2
20 | Cc1cc(-c2cnc3c(NCC4CCS(=O)(=O)CC4)cc(Sc4ccccc4)nn23)ccc1C(=O)NC1CC1 [Example 302, N-cyclopropyl-4-[8-{[(1,1-dioxidotetrahydro-2H-thiopyran-4-yl)methyl]amino}-6-(phenylsulfanyl)imidazo[1,2-b]pyridazin-3-yl]-2-methylbenzamide] | 0.3
21 | Cc1cc(-c2cnc3c(NCC(C)(C)O)cc(Nc4ccc(F)cc4)nn23)ccc1C(=O)NC1CC1 [Example 305, N-cyclopropyl-4-{6-[(4-fluorophenyl)amino]-8-[(2-hydroxy-2-methylpropyl)amino]imidazo[1,2-b]pyridazin-3-yl}-2-methylbenzamide] | 0.6
22 | Cc1cc(-c2cnc3c(NCC(C)(C)O)cc(Nc4ccccc4)nn23)ccc1C(=O)NC1CC1 [Example 306, 4-{6-anilino-8-[(2-hydroxy-2-methylpropyl)amino]imidazo[1,2-b]pyridazin-3-yl}-N-cyclopropyl-2-methylbenzamide] | 0.6
23 | Cc1cc(-c2cnc3c(NCC(C)(C)O)cc(Nc4ccc(F)c(F)c4)nn23)ccc1C(=O)NC1CC1 [Example 307, N-cyclopropyl-4-{6-[(3,4-difluorophenyl)amino]-8-[(2-hydroxy-2-methylpropyl)amino]imidazo[1,2-b]pyridazin-3-yl}-2-methylbenzamide] | 0.5
24 | Cc1cccc(Nc2cc(NCC(C)(C)O)c3ncc(-c4ccc(C(=O)NC5CC5)c(C)c4)n3n2)c1 [Example 308, N-cyclopropyl-4-{8-[(2-hydroxy-2-methylpropyl)amino]-6-[(3-methylphenyl)amino]imidazo[1,2-b]pyridazin-3-yl}-2-methylbenzamide] | 1
